From US9447086B2, “6-amino acid heteroaryldihydropyrimidines for the treatment and prophylaxis of hepatitis B virus infection” (priority 2012, dated 2016)
pEC50: −log10 of the molar value.

Tests used:
[1] = Metabolic stability study in human microsome; assay type: in vitro ADME
Method in brief: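 Human liver microsomes (0.5 mg/mL) with 1 μM compound in 100 mM phosphate pH 7.4 at 37 °C, started with 1 mM NADPH or an NADPH-regenerating system. Samples taken at 0, 3, 6, 9, 15 and 30 min, quenched in methanol. Parent remaining measured by LC-MS/MS; no-cofactor controls included.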

[2] = Cytotoxicity (CC50) in HepDE19 cells, CCK-8 cell viability; assay type: cell-based; conditions: human, HepDE19 cells; read-out: CC50
Method in brief: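 HBV-transfected HepG2-derived HepDE19 cells grown in DMEM-F12 with 10% FBS and G418. Viability read five days after treatment by CCK-8, 2 h at 37 °C, absorbance at 450 and 630 nm.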

[3] = Lyophilisation solubility assay (Lysa); assay type: physicochemical; conditions: phosphate buffer, pH 6.5, aqueous buffer, thermodynamic from solid
Method in brief: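 Duplicate samples from 10 mM DMSO stocks are dried, redissolved in 0.05 M phosphate buffer pH 6.5, stirred 1 h, shaken 2 h and left overnight. Filtrate and its 1/10 dilution are quantified by direct UV or HPLC-UV, giving solubility in μg/mL.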

HBV [4] = assay: Anti-HBV activity in vitro in HepG2.2.15 cells (extracellular HBV DNA by qPCR); assay type: cell-based, Hepatitis B virus; conditions: Hepatitis B virus; HepG2.2.15 cells; in-house data; read-out: EC50
Method in brief: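 HepG2.2.15 cells, which constitutively produce HBV, were seeded overnight and then treated for 5 days with half-log serially diluted compounds at 0.5% final DMSO. Extracellular HBV DNA in culture supernatant was extracted and quantified by qPCR.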

HBV [5] = assay: Selectivity index (CC50 value/EC50 value); assay type: cell-based, Hepatitis B virus
Method in brief: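 Ratio of CC50 to EC50, measuring antiviral activity against HBV relative to cytotoxicity in vitro; higher values indicate greater separation between viral inhibition and cell death.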

Compound	Human Hepatic Clearance [1]	CC50 at 5 days [2]	solubility thermodynamic [3]	pEC50 (HBV [4])	Selectivity index (CC50/EC50) (HBV [5])
COC(=O)C1=C(CN2CCOC[C@H]2C(=O)O)NC(c2ncoc2C)=N[C@H]1c1cccc(F)c1Cl [Example 103, (S)-4-[(R)-6-(2-Chloro-3-fluoro-phenyl)-5-methoxycarbonyl-2-(5-methyl-oxazol-4-yl)-3,6-dihydro-pyrimidin-4-ylmethyl]-morpholine-3-carboxylic acid]	2.81 mL/min/kg	> 100000 nM	> 643 µg/mL	7.82	>6803
CCOC(=O)C1=C(CN2CCOC[C@H]2C(=O)O)NC(c2nccs2)=N[C@H]1c1cccc(F)c1 [Example 53, (S)-4-[(S)-5-Ethoxycarbonyl-6-(3-fluoro-phenyl)-2-thiazol-2-yl-3,6-dihydro-pyrimidin-4-ylmethyl]-morpholine-3-carboxylic acid]	0 mL/min/kg	69000 nM	> 621 µg/mL	7.85	4769
CCOC(=O)C1=C(CN2CCOC[C@H]2C(=O)O)NC(c2nccs2)=N[C@H]1c1ccc(Br)cc1 [Example 123, (3S)-4-[[(4S)-4-(4-Bromophenyl)-5-ethoxycarbonyl-2-(1,3-thiazol-2-yl)-1,4-dihydropyrimidin-6-yl]methyl]morpholine-3-carboxylic acid]	3.14 mL/min/kg	56000 nM	> 666 µg/mL	8.55	19900
CC(C)OC(=O)C1=C(CN2CCOC[C@H]2C(=O)O)NC(c2nccs2)=N[C@H]1c1cccc(F)c1Cl [Example 101, (S)-4-[(R)-6-(2-Chloro-3-fluoro-phenyl)-5-isopropoxycarbonyl-2-thiazol-2-yl-3,6-dihydro-pyrimidin-4-ylmethyl]-morpholine-3-carboxylic acid]	4.18 mL/min/kg	91000 nM	> 571 µg/mL	7.85	6741
CCOC(=O)C1=C(CN2CCOC[C@H]2C(=O)O)NC(c2nccs2)=N[C@H]1c1ccc(F)c(F)c1F [Example 44, (S)-4-[(R)-5-Ethoxycarbonyl-2-thiazol-2-yl-6-(2,3,4-trifluoro-phenyl)-3,6-dihydro-pyrimidin-4-ylmethyl]-morpholine-3-carboxylic acid]	4.46 mL/min/kg	49000 nM	> 626 µg/mL	8.34	10748
CCOC(=O)C1=C(CN2CCOC[C@H]2C(=O)O)NC(c2nccn2C)=N[C@H]1c1ccc(F)c(F)c1 [Example 57, (S)-4-[(S)-6-(3,4-Difluoro-phenyl)-5-ethoxycarbonyl-2-(1-methyl-1H-imidazol-2-yl)-3,6-dihydro-pyrimidin-4-ylmethyl]-morpholine-3-carboxylic acid]	0 mL/min/kg	35000 nM	> 613 µg/mL	7.82	2384
CCOC(=O)C1=C(CN2CC(F)(F)CC[C@H]2C(=O)O)NC(c2nccs2)=N[C@H]1c1ccccc1Cl [Example 111, (R)-6-((S)-2-Carboxy-5,5-difluoro-piperidin-1-ylmethyl)-4-(2-chloro-phenyl)-2-thiazol-2-yl-1,4-dihydro-pyrimidine-5-carboxylic acid ethyl ester]	5.31 mL/min/kg	> 100000 nM	> 620 µg/mL	8.24	17241
CCOC(=O)C1=C(CN2CC(F)(F)C[C@H]2C(=O)O)NC(c2nccs2)=N[C@H]1c1ccc(F)cc1F [Example 59, (R)-6-((S)-2-Carboxy-4,4-difluoro-pyrrolidin-1-ylmethyl)-4-(2,4-difluoro-phenyl)-2-thiazol-2-yl-1,4-dihydro-pyrimidine-5-carboxylic acid ethyl ester]	3.5 mL/min/kg	52000 nM	> 630 µg/mL	7.89	3935
COC(=O)C1=C(CN2CCO[C@H](C)[C@H]2C(=O)O)NC(c2nccs2)=N[C@H]1c1ccc(F)c(F)c1F [Example 114, (2R,3S)-4-[(R)-5-Methoxycarbonyl-2-thiazol-2-yl-6-(2,3,4-trifluoro-phenyl)-3,6-dihydro-pyrimidin-4-ylmethyl]-2-methyl-morpholine-3-carboxylic acid]	0 mL/min/kg	> 100000 nM	> 617 µg/mL	8.03	>10753
COC(=O)C1=C(CN2CCOC[C@H]2C(=O)O)NC(c2ncc(F)cc2F)=N[C@H]1c1ccc(F)cc1Cl [Example 6, (S)-4-[(R)-6-(2-Chloro-4-fluoro-phenyl)-2-(3,5-difluoro-pyridin-2-yl)-5-methoxycarbonyl-3,6-dihydro-pyrimidin-4-ylmethyl]-morpholine-3-carboxylic acid]	6.28 mL/min/kg	27000 nM	> 100 µg/mL	8.12	3600
CCOC(=O)C1=C(CN2CCOC[C@H]2C(=O)O)NC(c2nccs2)=N[C@H]1c1cccc(F)c1F [Example 70, (S)-4-[(R)-6-(2,3-Difluoro-phenyl)-5-ethoxycarbonyl-2-thiazol-2-yl-3,6-dihydro-pyrimidin-4-ylmethyl]-morpholine-3-carboxylic acid]	2.22 mL/min/kg	> 100000 nM	> 611 µg/mL	8.05	>11236
CCOC(=O)C1=C(CN2CC(F)(F)C[C@H]2C(=O)O)NC(c2nccs2)=N[C@H]1c1cccc(F)c1Cl [Example 64, (R)-6-((S)-2-Carboxy-4,4-difluoro-pyrrolidin-1-ylmethyl)-4-(2-chloro-3-fluoro-phenyl)-2-thiazol-2-yl-1,4-dihydro-pyrimidine-5-carboxylic acid ethyl ester]	0 mL/min/kg	47000 nM	> 620 µg/mL	8.52	15667
CCOC(=O)C1=C(CN2CCOC[C@H]2C(=O)O)NC(c2nccs2)=N[C@H]1c1ccc(F)cc1Br [Example 122, (S)-4-(((R)-6-(2-Bromo-4-fluorophenyl)-5-(ethoxycarbonyl)-2-(thiazol-2-yl)-3,6-dihydropyrimidin-4-yl)methyl)morpholine-3-carboxylic acid]	1.58 mL/min/kg	73000 nM	> 722 µg/mL	8.89	55769
CCOC(=O)C1=C(CN2CCOC[C@H]2C(=O)O)NC(c2ncoc2C)=N[C@H]1c1ccc(F)cc1Br [Example 69, (S)-4-[(R)-6-(2-Bromo-4-fluoro-phenyl)-5-ethoxycarbonyl-2-(5-methyl-oxazol-4-yl)-3,6-dihydro-pyrimidin-4-ylmethyl]-morpholine-3-carboxylic acid]	0 mL/min/kg	57000 nM	> 658 µg/mL	8.22	9500
CCOC(=O)C1=C(CN2CCOC[C@H]2C(=O)O)NC(c2nccs2)=N[C@H]1c1ccccc1Br [Example 127, (S)-4-(((R)-6-(2-Bromophenyl)-5-(ethoxycarbonyl)-2-(thiazol-2-yl)-3,6-dihydropyrimidin-4-yl)methyl)morpholine-3 carboxylic acid]	2.44 mL/min/kg	> 100000 nM	> 672 µg/mL	8.17	>14925
CCOC(=O)C1=C(CN2CC(F)(F)C[C@H]2C(=O)O)NC(c2nccn2C)=N[C@H]1c1ccc(F)cc1Cl [Example 36, (R)-6-((S)-2-Carboxy-4,4-difluoro-pyrrolidin-1-ylmethyl)-4-(2-chloro-4-fluoro-phenyl)-2-(1-methyl-1H-imidazol-2-yl)-1,4-dihydro-pyrimidine-5-carboxylic acid ethyl ester]	6.22 mL/min/kg	23000 nM	> 637 µg/mL	7.74	1251
CCOC(=O)C1=C(CN2CCOC[C@H]2C(=O)O)NC(c2nccs2)=N[C@H]1c1ccc(Br)cc1F [Example 93, (S)-4-[(R)-6-(4-Bromo-2-fluoro-phenyl)-5-ethoxycarbonyl-2-thiazol-2-yl-3,6-dihydro-pyrimidin-4-ylmethyl]-morpholine-3-carboxylic acid]	1.24 mL/min/kg	30000 nM	> 690 µg/mL	8.37	6977
COC(=O)C1=C(CN2CCO[C@H](C)[C@H]2C(=O)O)NC(c2nccs2)=N[C@H]1c1cccc(F)c1Cl [Example 115, (2R,3S)-4-[(R)-6-(2-Chloro-3-fluoro-phenyl)-5-methoxycarbonyl-2-thiazol-2-yl-3,6-dihydro-pyrimidin-4-ylmethyl]-2-methyl-morpholine-3-carboxylic acid]	1.55 mL/min/kg	> 100000 nM	> 642 µg/mL	8.64	>43478
